Results taken from paper PMC9737648, “Novel Approaches for the Solid-Phase Synthesis of Dihydroquinazoline-2(1H)-One Derivatives and Biological Evaluation as Potential Anticancer Agents” (Molecules, 2022).

What was measured:
[1] = tested on: breast cancer cells (MDA-MB-231); assay: MTT cytotoxicity assay, MDA-MB-231; type: cell-based, human; details: 72-h incubation
Method: (§1) The above cells were tested for cytotoxicity to identify the most promising antitumor drug among the synthesized quinazolinone derivatives.
(§2) An MTT assay was used to evaluate the in vitro cytotoxicity of the new compounds. The MTT assay depends on the reduction of soluble 3-([…])-2,5-diphenyl-tetrazolium bromide (MTT) into a blue purple formazan product, mainly by mitochondrial reductase activity inside living cells. […] The cells were suspended in growth medium and plated in 96-well culture plates at a density of 4 × 10^4 cells/well and incubated at 37 °C in a 5% CO2 incubator. […] Each experiment was performed at least 3 times.

[2] = tested on: human hepatic stellate cells (LX-2); assay: MTT cytotoxicity assay, LX-2 normal control; type: cell-based; details: 72-h incubation
Method: as §1, §2

[3] = DPPH• free radical scavenging assay; details: for IC50: concentration required to scavenge 50% of the DPPH, 30 min in the dark; for antioxidant activity (in words): DPPH assay
Method: The quinazolinone derivatives were evaluated for their free radical scavenging activity at 320, 160, 80, 40, 20, and 10 µM concentration using the DPPH radical method, with ascorbic acid as the positive control (Table 3).
The antiradical activity of the compounds was estimated according to a slight modification of the procedure reported by Morales and Jimenez-Perez. […] Each sample (100 μL) at a different concentration was added to a freshly prepared solution of 1,1-diphenyl-2-picrylhydrazyl (DPPH•) radical (0.2 mM, 100 μL). The mixtures (200 μL) were placed in a 96-well microplate, shaken vigorously, and then left to stand for 30 min in the dark. Then, absorbance was immediately measured at a wavelength of 517 nm. Vc was used as the standard. The antiradical activity for each compound was determined in the Vc equivalent antioxidant capacity. The DPPH• solution in the presence of ethanol and in the absence of compounds was tested and used as a negative control. […] In all experiments, the samples were analyzed in triplicate, and activity for each compound was presented as the mean value ± SEM and used for evaluation of structure–activity relationships. […] Absorbance was taken at 520 nm using a microplate reader (Tecan, Männedorf, Switzerland).

[4] = tested on: ovarian cancer cells (A2780); assay: MTT cytotoxicity assay, A2780; type: cell-based, human; details: 72-h incubation
Method: as §1, §2

[5] = tested on: human liver cancer cells (HepG-2); assay: MTT cytotoxicity assay, HepG-2; type: cell-based; details: 72-h incubation
Method: as §1, §2

Molecule	IC50 [1] [µM]	IC50 [2] [µM]	IC50 [3] [µM]	IC50 [4] [µM]	IC50 [5] [µM]	IC50 ([1]; Homo sapiens) [µM]	IC50 ([2]; Homo sapiens) [µM]	IC50 ([4]; Homo sapiens, A2780, 72 h) [µM]	IC50 ([5]; Homo sapiens, HepG2, 72 h) [µM]	antioxidant activity (in words) [3]
4-{2-{1-(3-ammoniopropyl)-2-oxo-6-[2-(thiophen-2-yl)acetamido]-1,2,3,4-tetrahydroquinazolin-4-yl}acetamido}-4-carbamoylpiperidin-1-aminium 2,2,2-trifluoroacetate [CA5]	74.81 ± 0.27	> 100	465 ± 8.61	32.3 ± 6.21	65.5 ± 3.16					
NCCCN1C(=O)NC(CC(=O)NC(CO)C(N)=O)c2cc([N+](=O)[O-])ccc21 (centres unmarked) [CA1-6, 3-{4-{2-[(1-amino-3-hydroxy-1-oxopropan-2-yl)amino]-2-oxoethyl}-6-nitro-2-oxo-3,4-dihydroquinazolin-1(2H)-yl}propan-1-aminium 2,2,2-trifluoroacetate]			> 1000			81.2 ± 1.54	97.9 ± 15.6	83.2 ± 2.69	52.3 ± 3.45	
NCCCN1C(=O)NC(CC(=O)NC(CO)C(N)=O)c2cc(N)ccc21 (centres unmarked) [CA1-7, 4-{2-[(1-amino-3-hydroxy-1-oxopropan-2-yl)amino]-2-oxoethyl}-1-(3-ammoniopropyl)-2-oxo-1,2,3,4-tetrahydroquinazolin-6-aminium 2,2,2-trifluoroacetate]			57.99 ± 0.38			90.1 ± 10.9	> 100	79.8 ± 1.01	59.3 ± 1.85	
NCCCN1C(=O)NC(CC(=O)NC(CO)C(N)=O)c2cc(NC(=O)c3ccncc3)ccc21 (centres unmarked) [CA1-a, 3-{4-{2-[(1-amino-3-hydroxy-1-oxopropan-2-yl)amino]-2-oxoethyl}-6-(isonicotinamido)-2-oxo-3,4-dihydroquinazolin-1(2H)-yl}propan-1-aminium 2,2,2-trifluoroacetate]			> 1000			86 ± 2.06	> 100	80 ± 2.15	54.4 ± 3.45	
NCCCN1C(=O)NC(CC(=O)NC(CO)C(N)=O)c2cc(NC(=O)c3ccccc3)ccc21 (centres unmarked) [CA1-b, 3-{4-{2-[(1-amino-3-hydroxy-1-oxopropan-2-yl)amino]-2-oxoethyl}-6-benzamido-2-oxo-3,4-dihydroquinazolin-1(2H)-yl}propan-1-aminium 2,2,2-trifluoroacetate]			> 1000			76.6 ± 2.42	85.8 ± 4.28	> 100	60.1 ± 3.88	
Cc1ccc(C(=O)Nc2ccc3c(c2)C(CC(=O)NC(CO)C(N)=O)NC(=O)N3CCCN)cc1 (centres unmarked) [CA1-c, 3-{4-{2-[(1-amino-3-hydroxy-1-oxopropan-2-yl)amino]-2-oxoethyl}-6-(4-methylbenzamido)-2-oxo-3,4-dihydroquinazolin-1(2H)-yl}propan-1-aminium 2,2,2-trifluoroacetate]			387 ± 58.8		48.1 ± 2.34	92.4 ± 4.91	85.4 ± 1.78	> 100	< 50	
NCCCN1C(=O)NC(CC(=O)NC(CO)C(N)=O)c2cc(NC(=O)c3ccc(F)cc3)ccc21 (centres unmarked) [CA1-d, 3-{4-{2-[(1-amino-3-hydroxy-1-oxopropan-2-yl)amino]-2-oxoethyl}-6-(4-fluorobenzamido)-2-oxo-3,4-dihydroquinazolin-1(2H)-yl}propan-1-aminium 2,2,2-trifluoroacetate]			> 1000		49.6 ± 1.91	85.7 ± 4.87	> 100	88.3 ± 8.56	< 50	
NCCCN1C(=O)NC(CC(=O)NC(CO)C(N)=O)c2cc(NC(=O)c3cccnc3)ccc21.O=C(O)C(F)(F)F (centres unmarked) [CA1-e, 3-{4-{2-[(1-amino-3-hydroxy-1-oxopropan-2-yl)amino]-2-oxoethyl}-6-(nicotinamido)-2-oxo-3,4-dihydroquinazolin-1(2H)-yl}propan-1-aminium 2,2,2-trifluoroacetate]			> 1000	22.76 ± 0.22	37.6 ± 5.53	85.7 ± 5.3	> 100	< 40	< 50	no antioxidant activity
NCCCN1C(=O)NC(CC(=O)NC(CO)C(N)=O)c2cc(NC(=O)c3ccccn3)ccc21 (centres unmarked) [CA1-f, 3-{4-{2-[(1-amino-3-hydroxy-1-oxopropan-2-yl)amino]-2-oxoethyl}-2-oxo-6-(picolinamido)-3,4-dihydroquinazolin-1(2H)-yl}propan-1-aminium 2,2,2-trifluoroacetate]			> 1000		44.4 ± 2.2	81.3 ± 1.21	97 ± 4.24	> 100	< 50	
NCCCN1C(=O)NC(CC(=O)NC(CO)C(N)=O)c2cc(NC(=O)COc3ccccc3)ccc21.O=C(O)C(F)(F)F (centres unmarked) [CA1-g, 3-{4-{2-[(1-amino-3-hydroxy-1-oxopropan-2-yl)amino]-2-oxoethyl}-2-oxo-6-(2-phenoxyacetamido)-3,4-dihydroquinazolin-1(2H)-yl}propan-1-aminium 2,2,2-trifluoroacetate]			> 1000	24.9 ± 7.22	45.4 ± 0.59	82.21 ± 0.59	> 100	< 40	< 50	no antioxidant activity
NCCCN1C(=O)NC(CC(=O)NC(CO)C(N)=O)c2cc(NC(=O)CCc3cccnc3)ccc21 (centres unmarked) [CA1-h, 3-{4-{2-[(1-amino-3-hydroxy-1-oxopropan-2-yl)amino]-2-oxoethyl}-2-oxo-6-[3-(pyridin-3-yl)propanamido]-3,4-dihydroquinazolin-1(2H)-yl}propan-1-aminium 2,2,2-trifluoroacetate]			> 1000			82.2 ± 11.4	97.5 ± 3.52	86.1 ± 3.73	56.93 ± 0.47	
NCCCN1C(=O)NC(CC(=O)NC(CO)C(N)=O)c2cc(NC(=O)Cc3cccs3)ccc21 (centres unmarked) [CA1-i, 3-{4-{2-[(1-amino-3-hydroxy-1-oxopropan-2-yl)amino]-2-oxoethyl}-2-oxo-6-[2-(thiophen-2-yl)acetamido]-3,4-dihydroquinazolin-1(2H)-yl}propan-1-aminium 2,2,2-trifluoroacetate]			557 ± 24.5	34.4 ± 5.61		89.7 ± 3.79	> 100	< 40	49.77 ± 0.12	
COc1ccccc1S(=O)(=O)Nc1ccc2c(c1)C(CC(=O)NC(CO)C(N)=O)NC(=O)N2CCCN (centres unmarked) [CA1-j, 3-{4-{2-[(1-amino-3-hydroxy-1-oxopropan-2-yl)amino]-2-oxoethyl}-6-[(2-methoxyphenyl)sulfonamido]-2-oxo-3,4-dihydroquinazolin-1(2H)-yl}propan-1-aminium 2,2,2-trifluoroacetate]			> 1000			76.3 ± 2.05	> 100	83.6 ± 1.24	73.8 ± 1.03	
CC(C)CCN1C(=O)NC(CC(=O)NC(CCCN)C(N)=O)c2cc(NC(=O)CCc3cccnc3)ccc21 (centres unmarked) [CA3, 5-amino-4-{2-{1-isopentyl-2-oxo-6-[3-(pyridin-3-yl)propanamido]-1,2,3,4-tetrahydroquinazolin-4-yl}acetamido}-5-oxopentan-1-aminium 2,2,2-trifluoroacetate]			> 1000			86 ± 11.1	> 100	82.9 ± 2.13	64.2 ± 4.69	
CC(C)(NC(=O)CC1NC(=O)N(Cc2ccccc2)c2ccc(NC(=O)COc3ccccc3)cc21)C(N)=O (centres unmarked) [CA4, 2-{2-[1-benzyl-2-oxo-6-(2-phenoxyacetamido)-1,2,3,4-tetrahydroquinazolin-4-yl]acetamido}-2-methylpropanamide]			951 ± 30.6			87.1 ± 4.47	72.9 ± 0.91	66.2 ± 4.1	72.7 ± 2.76	
CN1C(=O)NC(CC(N)=O)c2cc(NC(=O)c3cccnc3)ccc21 (centres unmarked) [CA6-a, N-[4-(2-amino-2-oxoethyl)-1-methyl-2-oxo-1,2,3,4-tetrahydroquinazolin-6-yl]nicotinamide]			> 1000			> 100	> 100	> 100	> 100	
CN1C(=O)NC(CC(N)=O)c2cc(NC(=O)COc3ccccc3)ccc21 (centres unmarked) [CA6-b, N-[4-(2-amino-2-oxoethyl)-1-methyl-2-oxo-1,2,3,4-tetrahydroquinazolin-6-yl]-2-phenoxyacetamide]			> 1000			> 100	> 100	> 100	88 ± 1.39	
COc1ccccc1S(=O)(=O)Nc1ccc2c(c1)C(CC(N)=O)NC(=O)N2C (centres unmarked) [CA7-a, 2-{6-[(2-methoxyphenyl)sulfonamido]-1-methyl-2-oxo-1,2,3,4-tetrahydroquinazolin-4-yl}acetamide]			> 1000			87.7 ± 2.58	> 100	82.9 ± 2.68	86.4 ± 3.42	
O=C1O[C@H]([C@@H](O)CO)C(O)=C1O [Vc, ascorbic acid, reference compound]			22.5 ± 0.57							
